Source: patent publication US20070154449A1, “TIGHT JUNCTION MODULATING PEPTIDES FOR ENHANCED MUCOSAL DELIVERY OF THERAPEUTIC COMPOUNDS” (Nastech Pharmaceutical Company Inc., priority 2005, published 2007)
No end group written: not given here.

Columns and labels:
[1] = Intranasal PYY(3-36) pharmacokinetics in rabbits with various TJMPs (Example 10); assay type: in vivo, New Zealand White rabbits; conditions: for In Vivo Tier Ranking: PYY(3-36) 205 μg/kg intranasal, TJMP concentration per Table 11: PN159 50 μM, PN161, PN202 100 μM, PN27 250 μM, PN58, PN73, PN228 500 μM, PN183, PN556 1000 μM; for In Vivo Tier Ranking / AUCinf / AUClast / Cmax / T1/2 / Tmax: rabbit; for AUCinf / AUClast / Cmax / T1/2 / Tmax: PYY(3-36) in plasma, 205 μg/kg intranasal with the named TJMP (concentration per Table 11, 50-1000 μM) or PBS, mean; for in vivo permeability relative to PN159: PYY(3-36) intranasal in rabbits, TJMPs at the concentrations tested
Description: The tubes were chilled until […].

[2] = tested on: in vitro epithelial tissue model; test: Papp of drugs with and without PN159, in vitro tissue model; conditions: for Papp: Galantamine 40 mg/mL, pH 5.0
Procedure: In the present studies, 40 mg/ml galantamine in the lactate salt form was combined with 25, 50, and 100 μM PN159 in solution, pH 5.0 and osmolarity ˜270 mOsm. The combination was tested using an in vitro epithial tissue model to monitor galantamine permeation, transepithelial electrical resistance (TER), and the cytotoxicity of the formulation by LDH and MTT assays as described above. Permeation measurements for galantamine were conducted by standard HPLC analysis, as follows.
Galantamine concentration in the formulation and in the basolateral media (permeation samples) was determined using an isocratic LC (Waters Alliance) method with UV detection. • Column: Waters Symmetry Shield, C18, 5 um, 25×0.46 cm • Mobile phase: 5% ACN in 50 mM ammonium formate, pH 3.0 • Flow rate: 1 ml/min • Column temperature: 30° C. • Calibration curve: 0-400 μg/ml Galantamine HBr • Detection: UV at 285 nm
To evaluate permeabilizing activity in this context, 40 mg/ml galantamine in the lactate salt form was combined with 25, 50, and 100 μM PN159 in solution, pH 5.0 and osmolarity ˜270 mOsm. The combination was tested using an in vitro epithelal tissue model to monitor galantamine permeation, transepithelial electrical resistance (TER), and the cytotoxicity of the formulation by LDH and MTT assays.
For this purpose, in vitro tissue studies were performed on salmon calcitonin as a model therapeutic peptide in the absence and presence of […] PN159.

[3] = tested on: human-derived tracheal/bronchial epithelial cells (EpiAirway™ Tissue model system); test: Cytotoxicity (LDH assay), EpiAirway tissue model; assay type: cell-based
Procedure: The amount of cell death was assayed by measuring the release of lactate dehydrogenase (LDH) from the cells into the apical medium using a CytoTox 96 Cytotoxicity Assay Kit (Promega Corp., Madison, Wis.). One percent Octylphenolpoly (ethyleneglycolether)×(Triton X-100™) diluted in phosphate buffered saline (PBS) causes 100% lysis in cultured cells and served herein as a positive control for the LDH assay. Following the one hour incubation period with a test formulation (refer to Table 4 in Example 2 for details of test formulations), the total liquid volume of each insert was brought to a final volume of 200 μl with culture medium. The apical medium was then mixed by pipetting four times with a multichannel pipette set to a 100 μl volume. After mixing, a 100 μl sample from the apical side of each insert was transferred to a new 96-well plate. The apical media samples were sealed with a plate sealer and stored at room temperature for same day analysis or stored overnight at 4° C. for analysis the next day. To measure LDH levels, 5 μl of the 100 μl apical media sample was diluted in 45 μl DPBS in a new 96-well plate. Fresh, cell-free culture medium will be used as a blank. Fifty microliters of substrate solution was added to each well and incubated for 30 minutes at room temperature away from direct light. Following the 30 minute incubation, 50 μl of stop solution was added to each well. Optical density (OD) was measured at 490 nm with a uQuant absorbance plate reader from Biotek Instruments. The measurement of LDH release into the apical media indicates relative cytotoxicity of the samples. Percent cytotoxicity for each test formulation was calculated by subtracting the measured absorbance of the PBS control (basal level of LDH release) from the measured absorbance of the individual test formulation and then dividing that value by the measured absorbance for the 1% Triton X-100™ positive control, multiplied by 100.
The formula used to calculate percent cytotoxicity is as follows: [formula] Osmolality
Of the total 300 μl volume for each test formulation, only a 20 μl sample was applied to the human-derived tracheal/bronchial epithelial cells (EpiAirway™ Tissue model system) in order to assess the effect each test formulation had on TER, LDH and sample permeation.

Row | Compound | AUCinf [1] [pg·min/mL] | AUClast [1] [pg·min/mL] | Cmax [1] [ng/mL] | T1/2 [1] [min] | Tmax [1] [min] | also measured
1 | CC[C@H](C)[C@H](NC(=O)[C@H](CCCCN)NC(=O)[C@H](CCCCN)NC(=O)[C@H](C)NC(=O)[C@H](CC(C)C)NC(=O)[C@H](C)NC(=O)[C@H](C)NC(=O)[C@H](CC(C)C)NC(=O)[C@H](C)NC(=O)[C@H](CCCCN)NC(=O)[C@H](CC(C)C)NC(=O)[C@H](CC(N)=O)NC(=O)[C@@H](NC(=O)[C@H](CCCCN)NC(=O)CNC(=O)[C@H](CC(C)C)NC(=O)[C@H](CC(C)C)NC(=O)[C@H](Cc1ccc(O)cc1)NC(=O)CNC(=O)[C@H](C)NC(=O)[C@H](CO)NC(=O)[C@H](CC(N)=O)NC(=O)[C@H](CC(C)C)NC(=O)[C@@H](NC(=O)[C@H](Cc1c[nH]c2ccccc12)NC(=O)CN)[C@@H](C)O)[C@@H](C)CC)C(=O)N[C@@H](CC(C)C)C(N)=O [PN161] | 1.65e+06 | 1.62e+06 | 32.1 | 34.3 | 24.0 | In Vivo Tier Ranking [1]: I; in vivo permeability relative to PN159 [1]: comparable to PN159
2 | CC[C@H](C)[C@H](NC(=O)[C@H](CCCCN)NC(=O)[C@@H](NC(=O)[C@H](CCC(N)=O)NC(=O)[C@@H](N)CCCNC(=N)N)[C@@H](C)CC)C(=O)N[C@@H](Cc1c[nH]c2ccccc12)C(=O)N[C@@H](Cc1ccccc1)C(=O)N[C@@H](CCC(N)=O)C(=O)N[C@@H](CC(N)=O)C(=O)N[C@@H](CCCNC(=N)N)C(=O)N[C@@H](CCCNC(=N)N)C(=O)N[C@@H](CCSC)C(=O)N[C@@H](CCCCN)C(=O)N[C@@H](Cc1c[nH]c2ccccc12)C(=O)N[C@@H](CCCCN)C(=O)N[C@@H](CCCCN)C(N)=O [PN58] | 871000 | 830000 | 12.8 | 29.5 | 43.0 | 
3 | COc1ccc2c3c1O[C@H]1C[C@@H](O)C=C[C@@]31CCN(C)C2 [Galantamine, galantamine] |  |  |  |  |  | fold increase in Papp of galantamine with PN159 ([2]; 40 mg/ml galantamine lactate, pH 5.0, with 25, 50, 100 PN159 versus without): 2.5-3.5 fold; Papp ([2]; [PN159] 0 μM): 2.1 ×10⁻⁶ cm/s; Papp ([2]; [PN159] 0 μM, listed as galantamine): about 2.1×10^−6 cm/s; Papp ([2]; [PN159] 25 μM): 5.1 ×10⁻⁶ cm/s; Papp ([2]; [PN159] 50 μM): 6.2 ×10⁻⁶ cm/s; Papp ([2]; [PN159] 100 μM): 7.2 ×10⁻⁶ cm/s
4 | KLWSAWPSLWSSLWKP-NH2 [PN228] | 1.08e+06 | 1.06e+06 | 21.2 | 30.4 | 31.0 | 
5 | KETWWETWWTEWSQPGRKKRRQRRRRPPQ-NH2 [PN183] | 275000 | 258000 | 5.45 | 33.7 | 22.0 | 
6 | LRKLRKRLLRLRKLRKRLLR-NH2 [PN745] |  |  |  |  |  | LDH ([3]; 25 μM peptide, 1 h incubation, % of 1% Triton X-100 control): 11%; LDH ([3]; 100 μM peptide, 1 h incubation, % of 1% Triton X-100 control): 28%; LDH ([3]; 250 μM peptide, 1 h incubation, % of 1% Triton X-100 control): 45%; LDH ([3]; 500 μM peptide, 1 h incubation, % of 1% Triton X-100 control): 45%; LDH ([3]; 1000 μM peptide, 1 h incubation, % of 1% Triton X-100 control): 45%
7 | CC(C)C[C@H](NC(=O)[C@H](CCCCN)NC(=O)CNC(=O)[C@H](CC(C)C)NC(=O)[C@@H](NC(=O)[C@@H]1CSSC[C@H](N)C(=O)N[C@@H](CO)C(=O)N[C@@H](CC(N)=O)C(=O)N[C@@H](CC(C)C)C(=O)N[C@@H](CO)C(=O)N[C@@H]([C@@H](C)O)C(=O)N1)C(C)C)C(=O)N[C@@H](CO)C(=O)N[C@@H](CCC(N)=O)C(=O)N[C@@H](CCC(=O)O)C(=O)N[C@@H](CC(C)C)C(=O)N[C@@H](Cc1c[nH]cn1)C(=O)N[C@@H](CCCCN)C(=O)N[C@@H](CC(C)C)C(=O)N[C@@H](CCC(N)=O)C(=O)N[C@H](C(=O)N[C@@H](Cc1ccc(O)cc1)C(=O)N1CCC[C@H]1C(=O)N[C@@H](CCCNC(=N)N)C(=O)N[C@H](C(=O)N[C@@H](CC(N)=O)C(=O)N[C@H](C(=O)NCC(=O)N[C@@H](CO)C(=O)NCC(=O)N[C@H](C(=O)N1CCC[C@H]1C(N)=O)[C@@H](C)O)[C@@H](C)O)[C@@H](C)O)[C@@H](C)O [Calcitonin, salmon calcitonin] |  |  |  |  |  | fold increase in Papp of calcitonin with PN159 [2]: 23-47 fold
8 | AAVALLPAVLLALLAPRKKRRQRRRPPQ-NH2 [PN27] | 1.71e+06 | 1.67e+06 | 29.3 | 29.9 | 33.0 | In Vivo Tier Ranking [1]: I; in vivo permeability relative to PN159 [1]: comparable to PN159
9 | Octylphenolpoly (ethyleneglycolether)× [Triton X-100, reference compound] |  |  |  |  |  | LDH ([3]; 1% Triton X-100, positive (100% release) control): 100%
10 | CC[C@H](C)[C@H](NC(=O)[C@H](CCC(=O)O)NC(=O)[C@H](CO)NC(=O)[C@@H](NC(=O)[C@@H](N)CO)C(C)C)C(=O)N[C@@H](CCC(N)=O)C(=O)N[C@@H](CC(C)C)C(=O)N[C@@H](CCSC)C(=O)N[C@@H](Cc1cnc[nH]1)C(=O)N[C@@H](CC(N)=O)C(=O)N[C@@H](CC(C)C)C(=O)NCC(=O)N[C@@H](CCCCN)C(=O)N[C@@H](Cc1cnc[nH]1)C(=O)N[C@@H](CC(C)C)C(=O)N[C@@H](CC(N)=O)C(=O)N[C@@H](CO)C(=O)N[C@@H](CCSC)C(=O)N[C@@H](CCC(=O)O)C(=O)N[C@@H](CCCN=C(N)N)C(=O)N[C@H](C(=O)N[C@@H](CCC(=O)O)C(=O)N[C@@H](Cc1c[nH]c2ccccc12)C(=O)N[C@@H](CC(C)C)C(=O)N[C@@H](CCCN=C(N)N)C(=O)N[C@@H](CCCCN)C(=O)N[C@@H](CCCCN)C(=O)N[C@@H](CC(C)C)C(=O)N[C@@H](CCC(N)=O)C(=O)N[C@@H](CC(=O)O)C(=O)N[C@H](C(=O)N[C@@H](Cc1cnc[nH]1)C(=O)N[C@@H](CC(N)=O)C(=O)N[C@@H](Cc1ccccc1)C(=O)O)C(C)C)C(C)C [PTH1-34, human parathyroid hormone 1-34] |  |  |  |  |  | fold increase in Papp of PTH1-34 with PN159 [2]: 3-5 fold
